System: Expi293 cells transfected with His-Halotag
Test: Library cell penetration assay, cell crash method (Example 6)
Format: in vitro ADME, human
Protocol: Animal cells (e.g., Expi293 cells or human HEK 293 cells) were seeded in tissue culture plates and cultured in Opti-MEM media. The cells were set in PETG flasks at a concentration of 6×10^5 cells/mL and a volume of 30 mL. The cell viability was checked to be above 90-93%. The flasks were placed in a shaking incubator at 300 rpm in 8% CO2.
After 24 hours of incubation, for each flask, one 1.5-mL Lo-bind tube and one 2-mL Lo-Bind tube were prepared. In the 1.5-mL tube, 30 μg of polyhistidine-tagged halotag (His-Halotag) plasmid and Opti-MEM media were added to provide a 1-mL mixture. In the 2-mL Lo-Bind tube, 60 μL of ExpiFectamine and 940 μL of Opti-MEM were added. After 5 minutes, the plasmid/Opti-MEM mixture was added to the ExpiFectamine/Opti-MEM mixture. The combined mixture was placed in an incubator at room temperature for 20 minutes, which was subsequently added to the flask.
After 48 hours of transfection, the transfected cells were checked for viability (90% or higher). The transfected cells were transferred to a protein Lo-Bind Eppendorf 96-well deep well plate (1000 μL), where each well contained 1 million cells in 500 μL of Expi293 media.
Solutions of candidate compounds, either individual peptides or peptides from a peptide library (DPLs), were received at a stock concentration of 10 mM and diluted in DMSO and kept in a “Source Plate”. For DPLs, the peptide concentration in the “Source Plate” was 1 mM, whereas for individual peptides, the concentration was either 100 μM (for a final concentration of 100 nM) or 10 μM (for a final concentration of 10 nM). […] of the DPL or individual peptide solution was added in triplicates to the 96-well plate. The cells were kept in a shaking incubator at 300 rpm and 37 ° C., 8% CO2 overnight for about 18-20 hours.
The following day, one of the following two methods was performed: i) capture beads method or ii) cell crash method.
Cell crash method: the 96-well plate was placed in the centrifuge at 300 g for 5 minutes. 720 μL of the supernatant was removed. The cells were resuspended in residual 200 μL of media. The suspensions were transferred to a 96-well v-bottom plate, which was placed in the centrifuge at 300 g for an additional 5 minutes. All remaining media was removed. The cell pellets were washed with 200 μL of PBS, mixed and placed back in the centrifuge at 300 g and 4 ° C. for an additional 5 minutes. The supernatant was removed and 80 μL of PBS was added.
80 μL of eluted proteins/peptides from the capture beads method or the PBD solution from the cell crash method was transferred into a deepwell low binding plate (500 μL). 80 μL of ammonium hydroxide was added. The plate was kept on a shaker at 37 ° C. for 3 hours. The plate was dried in a speedvac overnight.
The following day, the dried cell pellet was resuspended in 70 μL of 47.5% water with 0.1% FA/47.5% ACN with 0.1% FA/10 μM pepmix (10 mM stock)/5% fresh DMSO. The mixture was let sit in the plate for 1 hour to allow the dissolution of the pellet. If the sample appeared cloudy, more resuspension solution was added (50 μL at a time). 50 μL was transferred directly to the mass spec plate and the plate was sealed with the 384-well plate seal.
Once all samples were added (including cell free), the plate was placed in an autosampler of a mass spectrometer. For the mass spectrometry analysis, methods from example 1 were employed.
Results from certain assessment were presented blow. Cell crash method was utilized. Mass Shifted Peptide Theoretical Max signal is signal of an agent comprising —OH obtained when using the DhaA to convert input agent comprising —Cl into product agent comprising —OH form without involving cells (multiple agents may be converted simultaneously; in some embodiments, can be performed library by library). In some embodiments, each library pool plus positive and negative references was tested in a single well, which in some cases contain about a million or so cells. […]

[1] = Mass Shifted Peptide Signal in Cells divided by Theoretical Max Signal per replicate pair, averaged
[2] = library pool tested as mixture, MS signal of unconverted —Cl agent
[3] = library pool tested as mixture, MS signal of —OH agent

Cell Penetration Score [1] | Peptide Signal in Cells (from cells; agents comprising —Cl) [2] | Mass Shifted Peptide Signal in Cells [3] | Peptide Signal in Cells (from cells; agents comprising —Cl) (MS signal of unconverted —Cl agent from cells, library pool or individual peptide) | Mass Shifted Peptide Signal in Cells (MS signal of —OH agent from cells, library pool or individual peptide) | Cell Penetration Score (Mass Shifted Peptide Signal in Cells divided by Mass Shifted Peptide Theoretical Max Signal, averaged across replicates) | SMILES
757 | 3E+05 | 4E+07 |  |  |  | CNC(=O)[C@H](C)NC(=O)[C@H](C)NC(=O)[C@H](CO)NC(=O)[C@]1(C)CCCC=CCCCCCC[C@@](C)(NC(=O)[C@H](Cc2ccccc2)NC(=O)[C@@H](NC(=O)[C@H](CC(C)C)NC(=O)CCC(=O)NCCOCCOCCCCCCCl)[C@@H](C)O)C(=O)N[C@@H](CCC(=O)O)C(=O)N[C@@H](Cc2ccc(O)cc2)C(=O)N[C@@H](Cc2c[nH]c3ccccc23)C(=O)N[C@@H](C)C(=O)N[C@@H](CCC(N)=O)C(=O)N[C@@H](CC2CCC2)C(=O)N1 (single isomer, unassigned) [PEP000120, HaloTagO2-Leu-Thr-Phe-R8-Glu-Tyr-Trp-Ala-Gln-Cba-S5-Ser-Ala-Ala-NHMe]
 |  |  | 4E+06 | 5E+07 | 888 | CNC(=O)[C@H](C)NC(=O)[C@H](C)NC(=O)[C@H](CO)NC(=O)[C@]1(C)CCCC=CCCCCCC[C@@](C)(NC(=O)[C@H](Cc2ccccc2)NC(=O)[C@@H](NC(=O)[C@H](CC(C)C)NC(=O)CCC(=O)NCCOCCOCCCCCCCl)[C@@H](C)O)C(=O)N[C@@H](CCC(=O)O)C(=O)N[C@@H](Cc2ccc(O)cc2)C(=O)N[C@@H](Cc2c[nH]c3ccccc23)C(=O)N[C@@H](C)C(=O)N[C@@H](CCC(N)=O)C(=O)N[C@@H](CC2CCC2)C(=O)N1 (single isomer, unassigned) [PEP000125, HaloTagO2-Leu-Thr-Phe-R8-Glu-Tyr-Trp-Ala-Gln-Cba-S5-Ser-Ala-Ala-NHMe]
1141 | 1E+05 | 8E+07 |  |  |  | CC(C)C[C@H](NC(=O)CCC(=O)NCCOCCOCCCCCCCl)C(=O)N[C@H](C(=O)N[C@@H](Cc1ccccc1)C(=O)N[C@]1(C)CCCCCCC=CCCC[C@@](C)(C(=O)N[C@@H](CO)C(=O)N[C@@H](C)C(=O)N[C@@H](C)C(N)=O)NC(=O)[C@H](CC2CCC2)NC(=O)[C@H](CCC(N)=O)NC(=O)[C@H](C)NC(=O)[C@H](Cc2c[nH]c3ccccc23)NC(=O)[C@H](Cc2ccc(O)cc2)NC(=O)[C@H](CCC(=O)O)NC1=O)[C@@H](C)O [PEP000117, HaloTagO2-Leu-Thr-Phe-R8-Glu-Tyr-Trp-Ala-Gln-Cba-S5-Ser-Ala-Ala-NH2]

More lines, now with the values behind:

SMILES | Cell Penetration Score [1] | Peptide Signal in Cells (from cells; agents comprising —Cl) [2] | Mass Shifted Peptide Signal in Cells [3] | Peptide Signal in Cells (from cells; agents comprising —Cl) (MS signal of unconverted —Cl agent from cells, library pool or individual peptide) | Mass Shifted Peptide Signal in Cells (MS signal of —OH agent from cells, library pool or individual peptide) | Cell Penetration Score (Mass Shifted Peptide Signal in Cells divided by Mass Shifted Peptide Theoretical Max Signal, averaged across replicates)
CC(C)C[C@H](NC(=O)CCC(=O)NCCOCCOCCCCCCCl)C(=O)N[C@H](C(=O)N[C@@H](Cc1ccccc1)C(=O)N[C@]1(C)CCCCCCC=CCCC[C@@](C)(C(=O)N[C@@H](CO)C(=O)N[C@@H](C)C(=O)N[C@@H](C)C(N)=O)NC(=O)[C@H](CC2CCC2)NC(=O)[C@H](CCC(N)=O)NC(=O)[C@H](C)NC(=O)[C@H](Cc2c[nH]c3ccccc23)NC(=O)[C@H](Cc2ccc(O)cc2)NC(=O)[C@H](C)NC1=O)[C@@H](C)O [PEP000116, HaloTagO2-Leu-Thr-Phe-R8-Ala-Tyr-Trp-Ala-Gln-Cba-S5-Ser-Ala-Ala-NH2] | 475 | 4E+07 | 4E+07 |  |  | 
CC(C)C[C@H](NC(=O)CCC(=O)NCCOCCOCCCCCCCl)C(=O)N[C@H](C(=O)N[C@@H](Cc1ccccc1)C(=O)N[C@]1(C)CCCCCCC=CCCC[C@@](C)(C(=O)N[C@@H](CO)C(=O)N[C@@H](C)C(=O)N[C@@H](C)C(N)=O)NC(=O)[C@H](CC2CCC2)NC(=O)[C@H](CCC(N)=O)NC(=O)[C@H](C)NC(=O)[C@H](Cc2c[nH]c3ccccc23)NC(=O)[C@H](Cc2ccc(O)cc2)NC(=O)[C@H]([C@@H](C)O)NC1=O)[C@@H](C)O [PEP000118, HaloTagO2-Leu-Thr-Phe-R8-Thr-Tyr-Trp-Ala-Gln-Cba-S5-Ser-Ala-Ala-NH2] | 536 | 4E+07 | 4E+07 |  |  | 

— patent publication US20230046728A1, “TECHNOLOGIES USEFUL FOR ASSESSING PERMEABILITY” (FOG PHARMACEUTICALS, INC., priority 2019, published 2023)
